According to patent publication US20040024024A1, “Aromatic sulfone hydroxamates and their use as protease inhibitors” (priority 2001, published 2004):
Structures can show the parent of a compound that is named as a salt.

Key:
[1] = molecular target: T1, Human recombinant MMP-1 (Homo sapiens, UniProt P03956); assay: In vitro MMP inhibition, Ki determination (fluorogenic substrate II); assay type: biochemical
T1 construct: made in house; host or cells: MMP-1-transfected HT-1080 cells (spent media)
T1 sequence (P03956 100-469): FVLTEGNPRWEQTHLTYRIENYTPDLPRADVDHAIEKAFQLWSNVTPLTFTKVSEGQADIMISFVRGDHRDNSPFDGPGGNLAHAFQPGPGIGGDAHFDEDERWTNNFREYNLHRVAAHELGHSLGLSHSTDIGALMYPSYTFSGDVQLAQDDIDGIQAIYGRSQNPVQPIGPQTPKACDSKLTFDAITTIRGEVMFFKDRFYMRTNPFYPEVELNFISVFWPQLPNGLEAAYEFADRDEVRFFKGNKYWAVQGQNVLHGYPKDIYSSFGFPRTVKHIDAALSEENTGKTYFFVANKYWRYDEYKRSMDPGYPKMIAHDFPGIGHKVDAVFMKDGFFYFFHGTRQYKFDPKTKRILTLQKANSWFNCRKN
Protocol: Several hydroxamates and salts thereof were analyzed in in vitro assays to determine their ability to inhibit the MMP cleavage of peptide substrates. Inhibition (Ki) and IC50 constants were calculated from the assayed hydroxamate-MMP interactions.
Human recombinant MMP-1, MMP-2, MMP-9, MMP-13, and MMP-14 were used in this assay. All enzymes were prepared in Assignee's laboratories following usual laboratory procedures. Protocols for the preparation and use of these enzymes are available in the scientific literature. See, e.g., Enzyme Nomenclature (Academic Press, San Diego, Calif., 1992) (and the citations therein). See also, Frije et al., J. Biol. Chem., 26(24), 16766-73 (1994).
The MMP-1 proenzyme was purified from the spent media of MMP-1-transfected HT-1080 cells provided by Dr. Harold Welgus of Washington University (St. Louis, Mo.). The protein was purified on a zinc chelating column.
All MMPs were activated using 4-aminophenylmercuric acetate (“APMA”, Sigma Chemical, St. Louis, Mo.) or trypsin. MMP-9 also was activated using human recombinant MMP-3 (purified in Assignee's laboratory following standard cloning and purification techniques).
Two fluorogenic, methoxycoumarin-containing polypeptide substrates were used in the MMP inhibition assays:
MCA-ArgProLeuGlyLeuDpaAlaArgGluArgNH2 (II)
Here, “Dpa” is 3-(2,4-dinitrophenyl)-L-2,3-diaminopropionyl group, and “MCA” is 7-methoxycoumarin-4-yl acetyl. Substrate (I) was purchased from Baychem (Redwood City, Calif.), and substrate II was prepared Assignee's laboratory. Substrate I was used in the IC50 determination assays, while substrate II was used in the Ki determination assays. In the absence of MMP inhibitory activity, either substrate is cleaved at the Gly-Leu peptide bond. This cleavage separates the highly fluorogenic peptide from the 2,4-dinitrophenyl quencher, thus resulting in increase of fluorescent intensity.
The stock solutions of the assayed hydroxamates (or salts thereof) were prepared in 1% dimethyl sulfoxide (DMSO). These stock solutions were diluted in Buffer A (100 mM Tris-HCl, 100 mM NaCl, 10 mM CaCl2, 0.05% polyoxyethylene 23 lauryl ether, pH 7.5) to obtain solutions with different hydroxamate concentrations, i.e., assay solutions with different concentrations of the assayed MMP inhibitory compound. The experiment controls contained the same amount of Buffer A/DMSO as the assayed sample, but contained no hydroxamate (or salt thereof).
The assays from which the Ki determinations were made were performed as follows. The assayed hydroxamate samples were incubated in separate wells of untreated white polystyrene plates (Nunc Nalgene International, Rochester, N.Y.), and analyzed on a Tecan SpectraFlour Plus plate reader. The excitation wavelength was 330 nm, and the emission wavelength—420 nm. All samples (assayed hydroxamates and controls) were incubated in separate plate wells at room temperature for 1 hr in the presence of 4 μM of MMP substrate (II). In the absence of MMP inhibitory activity, substrate II was cleaved at the Gly-Leu bond resulting in an increase of relative fluorescence. Inhibition was observed as a reduced rate of this increase in relative fluorescence. The various hydroxamates were analyzed using a single low enzyme concentration with a single substrate concentration fixed at or below the Km. This protocol is a modification of method by Knight et al., FEBS Lett., 296(3), 263-266 (1992). Apparent inhibitory constants were determined by non-linear regression of reaction velocity as a function of inhibitor and enzyme concentration using Morrison's equation, as described by Kuzmic, Anal. Biochem. 286, 45-50 (2000). Modifications were made in the non-linear regression method to allow a common control reaction rate and effective enzyme concentration to be shared between all dose-response relationships on a given assay plate. […]

[2] = molecular target: T2, Human recombinant MMP-2 (Homo sapiens, UniProt P08253); assay: In vitro MMP inhibition, IC50 determination (fluorogenic substrate I); assay type: biochemical
T2 construct: made in house; host or cells: MMP-2-transfected p2AHT2 cells
T2 sequence (P08253 110-660): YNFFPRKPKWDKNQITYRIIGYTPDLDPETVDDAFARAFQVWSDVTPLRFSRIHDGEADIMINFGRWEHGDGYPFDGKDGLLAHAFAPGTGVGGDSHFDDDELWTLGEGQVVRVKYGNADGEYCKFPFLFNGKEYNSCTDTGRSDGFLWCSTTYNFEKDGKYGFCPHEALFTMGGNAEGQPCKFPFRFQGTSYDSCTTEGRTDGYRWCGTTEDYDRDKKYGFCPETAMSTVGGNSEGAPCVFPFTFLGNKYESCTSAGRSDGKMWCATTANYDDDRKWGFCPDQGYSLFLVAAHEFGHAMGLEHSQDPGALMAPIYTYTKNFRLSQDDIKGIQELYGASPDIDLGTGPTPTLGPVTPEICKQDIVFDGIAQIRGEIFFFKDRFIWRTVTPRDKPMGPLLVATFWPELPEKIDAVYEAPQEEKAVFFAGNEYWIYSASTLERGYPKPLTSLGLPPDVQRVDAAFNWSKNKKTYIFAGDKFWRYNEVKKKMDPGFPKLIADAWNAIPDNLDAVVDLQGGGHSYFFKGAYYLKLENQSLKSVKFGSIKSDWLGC
Procedure, shortened: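 APMA- or trypsin-activated recombinant MMP-2 was incubated at room temperature with serial inhibitor dilutions in Tris buffer pH 7.5 (100 mM NaCl, 10 mM CaCl2, 0.05% Brij), with DMSO from 1% stocks, and 4 μM substrate I. Cleavage was read by fluorescence at 328/415 nm; IC50 was taken from the loss of fluorescence versus inhibitor concentration.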

[3] = substrate (II) 4 μM, 1 hr room temperature, apparent Ki, values in parenthesis
[4] = substrate (I) 4 μM, room temperature, values not in parenthesis

| Ki ([1]; value in parentheses) | IC50 ([2]; value outside parentheses) | Ki ([1]; value in parenthesis) | IC50 ([2]; value outside parenthesis) | SMILES | other results |
| --- | --- | --- | --- | --- | --- |
| > 10000 nM | 143 nM |  |  | O=C(NO)C1(S(=O)(=O)c2ccc(OCCCc3cccc(-c4ccc([N+](=O)[O-])cc4)c3)cc2)CCOCC1 [Example 626] |  |
| > 10000 nM | 138 nM |  |  | O=C(NO)C1(S(=O)(=O)c2ccc(OCCCc3cccc(-c4ccoc4)c3)cc2)CCOCC1 [Example 637] |  |
|  |  | 3940 nM | 11.4 nM | O=C(CCCOc1ccc(S(=O)(=O)C2(C(=O)NO)CCOCC2)cc1)Nc1ccc(OC(F)(F)F)cc1 [Example 228] |  |
| > 10000 nM | 10.3 nM |  |  | O=C(Cc1csc2ccccc12)NCCOc1ccc(S(=O)(=O)C2(C(=O)NO)CCOCC2)cc1 [Example 596] |  |
|  |  | 955 nM | 12.2 nM | Cc1cc(OC(F)(F)F)ccc1NC(=O)CCCOc1ccc(S(=O)(=O)C2(C(=O)NO)CCOCC2)cc1 [Example 229] |  |
|  |  | 6540 nM | 33.1 nM | CC(C)c1cccc(NC(=O)CCCOc2ccc(S(=O)(=O)C3(C(=O)NO)CCOCC3)cc2)c1 [Example 182] |  |
|  |  | > 10000 nM | > 10000 nM | CC(C)c1ccc(-c2cccc(CCCOc3ccc(S(=O)(=O)C4(C(=O)NO)CCOCC4)cc3)c2)cc1 [Example 160] |  |
| > 10000 nM | 195 nM |  |  | O=C(NO)C1(S(=O)(=O)c2ccc(OCCCc3cccc(-c4ccccc4O)c3)cc2)CCOCC1 [Example 636] |  |
|  |  | > 10000 nM | 10.9 nM | O=C(NO)C1(S(=O)(=O)c2ccc(OCCCc3cccc(Br)c3)cc2)CCOCC1 [Example 154] |  |
|  |  | > 10000 nM | 1600 nM | O=C(NO)C1(S(=O)(=O)c2ccc(OCCCc3cccc(-c4ccccc4Cl)c3)cc2)CCOCC1 [Example 162] |  |
|  |  | 1850 nM | 13.9 nM | O=C(CCCOc1ccc(S(=O)(=O)C2(C(=O)NO)CCOCC2)cc1)Nc1cccc(OC(F)(F)F)c1 [Example 181] |  |
| > 10000 nM | 247 nM |  |  | Cc1ccc(-c2cccc(CCCOc3ccc(S(=O)(=O)C4(C(=O)NO)CCOCC4)cc3)c2)s1 [Example 639] |  |
| > 10000 nM | 29.4 nM |  |  | O=C(NO)C1(S(=O)(=O)c2ccc(OCCCc3cccc(-n4ccnc4)c3)cc2)CCOCC1 [Example 574] |  |
|  |  | > 10000 nM | 20.3 nM | O=C(NO)C1(S(=O)(=O)c2ccc(OCCc3cccc(-c4ccncc4)c3)cc2)CCOCC1 [Example 113] |  |
| > 10000 nM | 91 nM |  |  | O=C(NO)C1(S(=O)(=O)c2ccc(OCCCc3cccc(-c4ccsc4)c3)cc2)CCOCC1 [Example 632] |  |
|  |  | > 10000 nM | 3400 nM | Cc1ccc(-c2cccc(CCCOc3ccc(S(=O)(=O)C4(C(=O)NO)CCOCC4)cc3)c2)cc1C [Example 165] |  |
| 3060 nM | 4.8 nM |  |  | O=C(CCCOc1ccc(S(=O)(=O)C2(C(=O)NO)CCOCC2)cc1)Nc1cccc(I)c1 [Example 570] |  |

The next lines start with the molecule.

| SMILES | Ki ([1]; value in parentheses) | IC50 ([2]; value outside parentheses) | Ki ([1]; value in parenthesis) | IC50 ([2]; value outside parenthesis) | other results |
| --- | --- | --- | --- | --- | --- |
| COCCN1CCC(C(=O)NO)(S(=O)(=O)c2ccc(OCCCc3cc(-c4ccc(F)cc4F)cs3)cc2)CC1 [Example 47, 4-[(4-{3-[4-(2,4-difluorophenyl)thien-2-l]propoxy}phenyl)sulfonyl]-N-hydroxy-1-(2-methoxyethyl)piperidine-4-carboxamide Hydrochloride] |  |  |  |  | Ki [1, 3]: > 10000 nM; IC50 [2, 4]: 18.2 nM |
| CCN1CCC(C(=O)NO)(S(=O)(=O)c2ccc(OCCCc3cccc(-c4ccccc4)c3)cc2)CC1 [Example 46] |  |  |  |  | Ki [1, 3]: > 10000 nM; IC50 [2, 4]: 321 nM |
| COCCN1CCC(C(=O)NO)(S(=O)(=O)c2ccc(OCCCc3nnc(-c4ccccc4C(F)(F)F)o3)cc2)CC1 [Example 178] |  |  | > 10000 nM | 28.4 nM |  |
| O=C(NO)C1(S(=O)(=O)c2ccc(OCCCc3cccc(-c4ccc5c(c4)OCCO5)c3)cc2)CCOCC1 [Example 627] | > 10000 nM | 2070 nM |  |  |  |
| O=C(NO)C1(S(=O)(=O)c2ccc(OCCCc3nc(-c4ccc(OC(F)(F)F)cc4)no3)cc2)CCN(C2CC2)CC1 [Example 51, 1-cyclopropyl-N-hydroxy-4-{[4-(3-{3-[4-(trifluoromethoxy)phenyl]-1,2,4-oxadiazol-5-yl}propoxy)phenyl]sulfonyl}piperidine-4-carboxamide Hydrochloride] |  |  |  |  | Ki [1, 3]: 5160 nM; IC50 [2, 4]: 252 nM |
| COCCN1CCC(C(=O)NO)(S(=O)(=O)c2ccc(OCCCc3cccc(-c4ccc(F)cc4)c3)cc2)CC1 [Example 140] |  |  | > 10000 nM | 48 nM |  |
| O=C(NO)C1(S(=O)(=O)c2ccc(OCCCc3cccc(-c4cccc5ccccc45)c3)cc2)CCOCC1 [Example 638] | > 10000 nM | 4400 nM |  |  |  |
| O=C(NO)C1(S(=O)(=O)c2ccc(OCCCc3nc(-c4ccc(OC(F)(F)F)cc4)no3)cc2)CCOCC1 [Example 31, tetrahydro-N-hydroxy-4-[[4-[3-[3[4-(trifluoromethoxy)phenyl]-1,2,4-oxadiazol-5-yl]propoxy]phenyl]sulfonyl]-2H-pyran-4-carboxamide] |  |  |  |  | Ki [1, 3]: > 10000 nM; IC50 [2, 4]: 346 nM |
| O=C(NO)C1(S(=O)(=O)c2ccc(OCCCc3cccc(-c4coc5ccccc45)c3)cc2)CCOCC1 [Example 634] | > 10000 nM | 486 nM |  |  |  |
| O=C(NO)C1(S(=O)(=O)c2ccc(OCCCc3cncc(-c4ccc(F)cc4)c3)cc2)CCOCC1 [Example 523] | 3210 nM | 162 nM |  |  |  |
| NC(=O)c1cccc(OCCOc2ccc(S(=O)(=O)C3(C(=O)NO)CCOCC3)cc2)c1 [Example 54] |  |  |  |  | Ki [1, 3]: > 10000 nM; IC50 [2, 4]: 35.5 nM |
| O=C(NO)C1(S(=O)(=O)c2ccc(OCCCc3cccc(-c4ccc(F)cc4)c3)cc2)CCOCC1 [Example 39] |  |  |  |  | Ki [1, 3]: > 10000 nM; IC50 [2, 4]: 1300 nM |
| O=C1Nc2ccc(-c3noc(CCCOc4ccc(S(=O)(=O)C5(C(=O)NO)CCN(C6CC6)CC5)cc4)n3)cc21 [Example 142] |  |  | > 10000 nM | 58.6 nM |  |
| N#Cc1ccc(-c2cccc(CCCOc3ccc(S(=O)(=O)C4(C(=O)NO)CCOCC4)cc3)c2)cc1 [Example 624] | > 10000 nM | 214 nM |  |  |  |
